# Reference: ChEMBL document CHEMBL1146126 (Bioorg Med Chem Lett, 2006)
# Tested on: Rattus norvegicus
# Assay: Increase in total bone content at 10 mg/kg, sc 28 days post dose in ovariectomized osteopenic rat
# Format: functional
# Conditions: route subcutaneous
row,SMILES,Activity [%]
1,O=C(O)CCCCCCN1C(=O)CC[C@@H]1CC[C@@H](O)Cc1cccc(C(F)(F)F)c1,15.34

# Tested on: Rattus norvegicus
# Assay: Increase in cortical thickness at 30 mg/kg, sc 28 days post dose in ovariectomized osteopenic rat
# Format: functional
# Conditions: route subcutaneous
row,SMILES,Activity [%]
1,O=C(O)CCCCCCN1C(=O)CC[C@@H]1CC[C@@H](O)Cc1cccc(C(F)(F)F)c1,124.19

# Molecular target: T1, Prostaglandin E2 receptor EP4 subtype (Rattus norvegicus, UniProt P43114)
# T1 sequence (P43114 whole entry): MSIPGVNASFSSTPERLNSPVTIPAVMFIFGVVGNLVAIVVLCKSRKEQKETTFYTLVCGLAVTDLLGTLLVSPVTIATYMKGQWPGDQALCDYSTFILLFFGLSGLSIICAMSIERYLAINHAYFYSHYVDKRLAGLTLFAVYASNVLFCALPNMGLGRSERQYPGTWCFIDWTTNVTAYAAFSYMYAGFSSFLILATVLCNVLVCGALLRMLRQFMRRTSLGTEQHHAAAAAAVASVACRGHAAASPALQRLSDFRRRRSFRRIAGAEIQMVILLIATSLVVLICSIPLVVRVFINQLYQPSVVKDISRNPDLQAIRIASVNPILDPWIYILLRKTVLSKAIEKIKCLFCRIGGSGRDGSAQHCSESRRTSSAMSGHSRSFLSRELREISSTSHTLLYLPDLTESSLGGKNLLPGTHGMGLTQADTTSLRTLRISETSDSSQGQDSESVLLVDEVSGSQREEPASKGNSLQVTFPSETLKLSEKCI
# Assay: Binding affinity to rat EP4 receptor expressed in HEK293 cells
# Format: cell-based
# Conditions: not given
row,SMILES,IC50 [nM]
1,CCc1ccc(CC(O)CC[C@H]2CCC(=O)N2CCCc2ccc(C(=O)O)s2)cc1 (stereo not given in full),140
2,O=C(O)c1ccc(CCCN2C(=O)CC[C@@H]2CCC(O)Cc2ccc(Cl)cc2)s1 (stereo not given in full),80
3,O=C(O)c1ccc(CCCN2C(=O)CCC2CCC(O)Cc2ccccc2)cc1 (stereo not given),250

# Now from value to molecule:
row,IC50 [nM],SMILES
1,1200,O=C(O)CCCCCCN1C(=O)CC[C@@H]1CC[C@@H](O)Cc1cccc(O)c1
2,388,N#Cc1cccc(C[C@H](O)CC[C@H]2CCC(=O)N2CCCCCCC(=O)O)c1
3,22,O=C(O)CCCCCCN1C(=O)CCC1CCC(O)Cc1cccc(Cl)c1 (stereo not given)

# Tested on: Rattus norvegicus
# Assay: Increase in total bone density at 10 mg/kg, sc 28 days post dose in ovariectomized osteopenic rat
# Format: functional
# Conditions: route subcutaneous
row,SMILES,Activity [%]
1,O=C(O)CCCCCCN1C(=O)CC[C@@H]1CC[C@@H](O)Cc1cccc(C(F)(F)F)c1,18.73

# Tested on: not listed separately
# Assay: Half life in po dosed Sprague-Dawley rat
# Format: ADME, organism-based
# Conditions: in vivo
row,half-life [min],SMILES
1,25.2,O=C(O)CCCCCCN1C(=O)CC[C@@H]1CC[C@@H](O)Cc1cccc(C(F)(F)F)c1

# Molecular target: T1, Prostaglandin E2 receptor EP4 subtype
# Assay: Activity at rat EP4 transfected in HEK293 cells by cAMP accumulation
# Format: functional, cell-based
# Conditions: not given
row,SMILES,EC50 [nM]
1,CCc1ccc(CC(O)CC[C@H]2CCC(=O)N2CCCc2ccc(C(=O)O)s2)cc1 (stereo not given in full),275
2,O=C(O)c1ccc(CCCN2C(=O)CC[C@@H]2CCC(O)Cc2ccc(Cl)cc2)s1 (stereo not given in full),40
3,O=C(O)CCCCCCN1C(=O)CC[C@@H]1CC[C@@H](O)Cc1cccc(C(F)(F)F)c1,13

# The next lines start with the values.
row,EC50 [nM],SMILES
1,170,O=C(O)CCCCCCN1C(=O)CC[C@@H]1CC[C@@H](O)Cc1cccc(O)c1
2,96,N#Cc1cccc(C[C@H](O)CC[C@H]2CCC(=O)N2CCCCCCC(=O)O)c1
3,8.8,O=C(O)CCCCCCN1C(=O)CCC1CCC(O)Cc1cccc(Cl)c1 (stereo not given)

# Tested on: Rattus norvegicus
# Assay: Increase in cortical area at 30 mg/kg, sc 28 days post dose in ovariectomized osteopenic rat
# Format: functional
# Conditions: route subcutaneous
row,SMILES,Activity [%]
1,O=C(O)CCCCCCN1C(=O)CC[C@@H]1CC[C@@H](O)Cc1cccc(C(F)(F)F)c1,66.92

# Tested on: not listed separately
# Assay: Plasma clearance in iv dosed Sprague-Dawley rat
# Conditions: not given
row,clearance [mL/min/kg],SMILES
1,71,O=C(O)CCCCCCN1C(=O)CC[C@@H]1CC[C@@H](O)Cc1cccc(C(F)(F)F)c1

# Tested on: not listed separately
# Assay: Half life in sc dosed Sprague-Dawley rat
# Format: ADME, organism-based
# Conditions: in vivo
row,half-life [min],SMILES
1,25.8,O=C(O)CCCCCCN1C(=O)CC[C@@H]1CC[C@@H](O)Cc1cccc(C(F)(F)F)c1

# Molecular target: Prostaglandin E2 receptor EP2 subtype (Rattus norvegicus, UniProt Q62928)
# Sequence (Q62928 whole entry): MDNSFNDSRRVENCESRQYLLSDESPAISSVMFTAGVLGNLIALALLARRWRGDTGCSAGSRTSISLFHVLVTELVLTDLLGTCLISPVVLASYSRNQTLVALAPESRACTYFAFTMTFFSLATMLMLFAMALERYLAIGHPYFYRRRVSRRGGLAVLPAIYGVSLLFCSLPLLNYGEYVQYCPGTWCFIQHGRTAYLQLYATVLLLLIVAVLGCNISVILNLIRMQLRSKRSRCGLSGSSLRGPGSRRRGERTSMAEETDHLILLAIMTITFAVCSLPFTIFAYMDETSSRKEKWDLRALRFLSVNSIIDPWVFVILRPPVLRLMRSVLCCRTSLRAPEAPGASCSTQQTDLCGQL
# Assay: Binding affinity to rat EP2 receptor expressed in HEK293 cells
# Format: cell-based
# Conditions: not given
row,SMILES,IC50 [nM]
1,CCc1ccc(CC(O)CC[C@H]2CCC(=O)N2CCCc2ccc(C(=O)O)s2)cc1 (stereo not given in full),1200
2,O=C(O)c1ccc(CCCN2C(=O)CC[C@@H]2CCC(O)Cc2ccc(Cl)cc2)s1 (stereo not given in full),86
3,O=C(O)CCCCCCN1C(=O)CC[C@@H]1CC[C@@H](O)Cc1cccc(C(F)(F)F)c1,> 3200
4,O=C(O)c1ccc(CCCN2C(=O)CCC2CCC(O)Cc2ccccc2)cc1 (stereo not given),> 3200

# Second part, the molecule after the results:
row,IC50 [nM],SMILES
1,> 3200,O=C(O)CCCCCCN1C(=O)CC[C@@H]1CC[C@@H](O)Cc1cccc(O)c1
2,> 3200,N#Cc1cccc(C[C@H](O)CC[C@H]2CCC(=O)N2CCCCCCC(=O)O)c1
3,> 3200,O=C(O)CCCCCCN1C(=O)CCC1CCC(O)Cc1cccc(Cl)c1 (stereo not given)

# Tested on: Rattus norvegicus
# Assay: Increase in cortical content at 10 mg/kg, sc 28 days post dose in ovariectomized osteopenic rat
# Format: functional
# Conditions: route subcutaneous
row,SMILES,Activity [%]
1,O=C(O)CCCCCCN1C(=O)CC[C@@H]1CC[C@@H](O)Cc1cccc(C(F)(F)F)c1,29.78

# Tested on: Rattus norvegicus
# Assay: Increase in total bone density at 30 mg/kg, sc 28 days post dose in ovariectomized osteopenic rat
# Format: functional
# Conditions: route subcutaneous
row,SMILES,Activity [%]
1,O=C(O)CCCCCCN1C(=O)CC[C@@H]1CC[C@@H](O)Cc1cccc(C(F)(F)F)c1,23.7

# Tested on: Rattus norvegicus
# Assay: Increase in cortical thickness at 10 mg/kg, sc 28 days post dose in ovariectomized osteopenic rat
# Format: functional
# Conditions: route subcutaneous
row,SMILES,Activity [%]
1,O=C(O)CCCCCCN1C(=O)CC[C@@H]1CC[C@@H](O)Cc1cccc(C(F)(F)F)c1,34.12

# Tested on: not listed separately
# Assay: Half life in iv dosed Sprague-Dawley rat
# Format: ADME, organism-based
# Conditions: in vivo
row,half-life [min],SMILES
1,12,O=C(O)CCCCCCN1C(=O)CC[C@@H]1CC[C@@H](O)Cc1cccc(C(F)(F)F)c1

# Tested on: Rattus norvegicus
# Assay: Volume distribution in sc dosed Sprague-Dawley rat
# Format: ADME, organism-based
# Conditions: in vivo
row,Vdss [L/kg],SMILES
1,0.46,O=C(O)CCCCCCN1C(=O)CC[C@@H]1CC[C@@H](O)Cc1cccc(C(F)(F)F)c1

# Molecular target: Prostaglandin E2 receptor EP4 subtype (Rattus norvegicus) (UniProt P43114)
# Sequence (P43114 whole entry): as the sequence (P43114 whole entry) above
# Assay: Activity at rat EP4 transfected in HEK293 cells by cAMP accumulation compared to PGE2
# Format: functional, cell-based
# Conditions: not given
row,SMILES,Activity [%]
1,CCc1ccc(CC(O)CC[C@H]2CCC(=O)N2CCCc2ccc(C(=O)O)s2)cc1 (stereo not given in full),82
2,O=C(O)c1ccc(CCCN2C(=O)CC[C@@H]2CCC(O)Cc2ccc(Cl)cc2)s1 (stereo not given in full),90
3,O=C(O)CCCCCCN1C(=O)CC[C@@H]1CC[C@@H](O)Cc1cccc(C(F)(F)F)c1,75

# Second part, the molecule after the results:
row,Activity [%],SMILES
1,100,O=C(O)CCCCCCN1C(=O)CC[C@@H]1CC[C@@H](O)Cc1cccc(O)c1
2,104,N#Cc1cccc(C[C@H](O)CC[C@H]2CCC(=O)N2CCCCCCC(=O)O)c1
3,89,O=C(O)CCCCCCN1C(=O)CCC1CCC(O)Cc1cccc(Cl)c1 (stereo not given)

# Molecular target: T2, Prostaglandin E2 receptor EP1 subtype (Homo sapiens, UniProt P34995)
# T2 sequence (P34995 whole entry): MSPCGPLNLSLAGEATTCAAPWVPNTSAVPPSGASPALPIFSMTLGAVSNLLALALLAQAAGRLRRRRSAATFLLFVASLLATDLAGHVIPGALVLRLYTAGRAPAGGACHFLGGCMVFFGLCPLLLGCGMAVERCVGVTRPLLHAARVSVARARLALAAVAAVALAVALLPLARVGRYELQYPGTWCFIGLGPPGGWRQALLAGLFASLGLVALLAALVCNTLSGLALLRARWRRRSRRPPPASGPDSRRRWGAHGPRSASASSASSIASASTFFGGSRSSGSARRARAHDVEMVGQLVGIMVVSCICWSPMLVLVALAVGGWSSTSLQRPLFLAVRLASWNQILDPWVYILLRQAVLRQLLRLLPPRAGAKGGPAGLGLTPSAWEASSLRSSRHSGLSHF
# Assay: Binding affinity to human EP1 receptor expressed in HEK293 cells
# Format: cell-based
# Conditions: not given
row,IC50 [nM],SMILES
1,> 3200,O=C(O)c1ccc(CCCN2C(=O)CC[C@@H]2CCC(O)Cc2ccc(Cl)cc2)s1 (stereo not given in full)
2,> 3200,O=C(O)c1ccc(CCCN2C(=O)CCC2CCC(O)Cc2ccccc2)cc1 (stereo not given)

# Tested on: Rattus norvegicus
# Assay: Increase in total bone content at 30 mg/kg, sc 28 days post dose in ovariectomized osteopenic rat
# Format: functional
# Conditions: route subcutaneous
row,SMILES,Activity [%]
1,O=C(O)CCCCCCN1C(=O)CC[C@@H]1CC[C@@H](O)Cc1cccc(C(F)(F)F)c1,32.53

# Tested on: Rattus norvegicus
# Assay: Increase in cortical content at 30 mg/kg, sc 28 days post dose in ovariectomized osteopenic rat
# Format: functional
# Conditions: route subcutaneous
row,SMILES,Activity [%]
1,O=C(O)CCCCCCN1C(=O)CC[C@@H]1CC[C@@H](O)Cc1cccc(C(F)(F)F)c1,57.7

# Molecular target: T3, Prostaglandin E2 receptor EP3 subtype (Homo sapiens, UniProt P43115)
# T3 sequence (P43115 whole entry): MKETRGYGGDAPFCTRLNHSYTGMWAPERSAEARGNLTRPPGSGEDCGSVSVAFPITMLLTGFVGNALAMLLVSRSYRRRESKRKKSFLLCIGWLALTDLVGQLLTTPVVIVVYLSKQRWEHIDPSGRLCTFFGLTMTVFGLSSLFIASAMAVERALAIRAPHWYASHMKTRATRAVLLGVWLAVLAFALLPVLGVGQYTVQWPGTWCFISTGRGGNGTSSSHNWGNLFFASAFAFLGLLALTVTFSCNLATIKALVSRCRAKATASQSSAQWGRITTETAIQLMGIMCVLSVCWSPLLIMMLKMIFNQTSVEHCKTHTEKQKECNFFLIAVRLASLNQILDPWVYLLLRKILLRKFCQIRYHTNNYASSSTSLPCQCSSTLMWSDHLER
# Assay: Binding affinity to human EP3 receptor expressed in HEK293 cells
# Format: cell-based
# Conditions: not given
row,IC50 [nM],SMILES
1,> 3200,O=C(O)c1ccc(CCCN2C(=O)CC[C@@H]2CCC(O)Cc2ccc(Cl)cc2)s1 (stereo not given in full)
2,> 3200,O=C(O)c1ccc(CCCN2C(=O)CCC2CCC(O)Cc2ccccc2)cc1 (stereo not given)

# Tested on: not listed separately
# Assay: Oral bioavailability in Sprague-Dawley rat
# Format: ADME, organism-based
# Conditions: in vivo
row,bioavailability [%],SMILES
1,17,O=C(O)CCCCCCN1C(=O)CC[C@@H]1CC[C@@H](O)Cc1cccc(C(F)(F)F)c1

# Tested on: Rattus norvegicus
# Assay: Increase in cortical area at 10 mg/kg, sc 28 days post dose in ovariectomized osteopenic rat
# Format: functional
# Conditions: route subcutaneous
row,SMILES,Activity [%]
1,O=C(O)CCCCCCN1C(=O)CC[C@@H]1CC[C@@H](O)Cc1cccc(C(F)(F)F)c1,21.93
